Read-outs that look alike come from different tables or passages of the source.
Tests used:
[1] = target: bee venom phospholipase A2 (Apis mellifera, UniProt P00630); assay type: biochemical
Calcium^2+ channel = experiment: Calcium Channel (mobilization) Inhibition Assay (Fura-2 fluorescence); assay type: cell-based
Text: Calcium Channel (mobilization) Inhibition Assay
Polymorphonuclear leukocytes (PMNa), gastric glands, GH3 cells, A431 cells, spleen cells, human keratinocytes corneal cells, etc. were loaded with the Ca^2+ sensitive fluorescent dye, Fura-2. The appropriate cell type was chosen and the potency and efficacy of the anti-inflammatory furanones on calcium mobilization, calcium channel inhibition was quantitated. The methods used for A431 cells listed below are representative of those used for other cells.
A431 cells were detached using a 5-10 min trypsin-EDTA treatment whereas GH3 cells were treated 2 to 5 min with a 1% pancreatin solution. Cells were immediately washed twice in a 20 mM HEPES buffer (pH 7.4) containing 120 mM NaCl, 6 mM KCl, 1 mM MgSO4, 1 mg/ml glucose and 1 mg/ml pyruvate and 1.4 mM calcium (medium A). Approximately 5×10^6 cells were suspended in medium A and incubated with 4 uM fura-2-AM for 15 min at 37° C.
After washing the fura-2 loaded cells, the uptake of dye was checked using fluorescence microscopy and found to be evenly distributed in the cytosol of all cells. Fluorescence was continuously recorded with a Perkin-Elmer LS-5 spectrofluorometer. The excitation wavelength was set at 340 nm and emission wavelength set at 500 nm. The cell suspension was continually stirred, maintained at 37° C. and equilibrated for approximately 5 min before addition of various agents. [Ca^2+ i was calculated using the following formula: [formula]
All fluorescence values were measured relative to a EGTA-quenched signal determined as follows: F was the relative fluorescence measurement of the sample. Fmax was determined by lysing the cells with digitonin (100 ug/ml) in DMSO. After Fmax was determined the pH was adjusted to 8, with NaOH and Ca^2+ chelated with 3 mM EGTA to totally quench the fura-2 signal and obtain Fmin.
When quin-2- was used, cells were incubated with 10 uM quin-2- at 37° C. for 1 hour, washed and then used.

[2] = read-out: IC50, Calcium^2+ Channel Mobilization Inhibition, KCl induced
[3] = read-out: IC50, Calcium^2+ Channel Mobilization Inhibition, TRH induced

Chain of bee venom phospholipase A2 (P00630 34-167 limits assumed): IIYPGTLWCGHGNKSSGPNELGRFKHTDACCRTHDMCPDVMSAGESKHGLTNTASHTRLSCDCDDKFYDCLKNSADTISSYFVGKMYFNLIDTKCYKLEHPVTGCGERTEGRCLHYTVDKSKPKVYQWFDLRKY

## CCCCCCCCCCCCC(O)C1=CC(=O)OC1C (single isomer, unassigned) [Compound 3, 4-(1-Hydroxytridecyl)-5-methyl-2(5H)-furanone]
[1]
  IC50, Phospholipase A2 Assay: inactive at 3 μM
Calcium^2+ channel; [2]
  IC50: 470 nM
Calcium^2+ channel; [3]
  IC50: 670 nM

## CCCCCCCCCCCCC(OC(C)=O)C1=CC(=O)OC1C (centres unmarked) [Compound 1, 4-(1-Acetoxytridecyl)-5-methyl-2(5H)-furanone]
[1]
  IC50, Phospholipase A2 Assay: inactive at 3 μM
Calcium^2+ channel; [2]
  IC50: 360 nM
Calcium^2+ channel; [3]
  IC50: 6400 nM

## CCCCCCCCCCCCC(OC(C)=O)C1=C(C)C(=O)OC1 (centres unmarked) [Compound 2, 4-(1-Acetoxytridecyl)-3-methyl-2-furanone]
[1]
  IC50, Phospholipase A2 Assay: inactive at 3 μM
Calcium^2+ channel; [2]
  IC50: 250 nM
Calcium^2+ channel; [3]
  IC50: 1000 nM

## CCCCCCCCCCCC(=O)OCC1=C(c2ccccc2)C(=O)OC1C (centres unmarked) [Compound 4, 4-Dodecoyloxymethyl-5-methyl-3-phenyl-2(5H)-furanone]
[1]
  IC50, Phospholipase A2 Assay: inactive at 3 μM
Calcium^2+ channel; TRH induced
  IC50, Calcium^2+ Channel Mobilization Inhibition, TRH induced: inactive
Calcium^2+ channel; [2]
  IC50: 8000 nM

## CC1=C(CC/C(C)=C/CCC2=CCC(C3=CC(=O)OC3O)OC2O)C(C)(C)CCC1 (centres unmarked) [manoalide, reference compound]
Calcium^2+ channel; [2]
  IC50: 800 nM
Calcium^2+ channel; [3]
  IC50: 600 nM

Source: patent US5451686A, “3 and 5 alkyl and phenyl 4-(hydroxy or acyloxy)-alkyl substituted 2(5H)-furanones as anti-inflammatory agents” (Allergan, Inc., priority 1994, dated 1995)
